Source: PubChem BioAssay (NCI)
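Tested at 5 concentrations; 48 h exposure; 96-well plates; endpoints linearly interpolated, else capped at highest concentration. GI50 marks 50% less growth. TGI: total growth inhibition.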

Legend:
Test in all cases: NCI tumour cell line growth inhibition, 48 h
HCT-116 colon = test system: HCT-116 colon
IGROV1 ovarian = test system: IGROV1 ovarian
SK-MEL-28 melanoma = test system: SK-MEL-28 melanoma
EKVX NSCLC = test system: EKVX NSCLC
MDA-MB-231 breast = test system: MDA-MB-231 breast
LOX IMVI melanoma = test system: LOX IMVI melanoma
MCF7 breast = test system: MCF7 breast
HCC-2998 colon = test system: HCC-2998 colon
HL-60(TB) leukemia = test system: HL-60(TB) leukemia
NCI-H226 lung = test system: NCI-H226 lung

Row | Compound | GI50 (HCT-116 colon) [µM] | TGI (HCT-116 colon) [µM] | GI50 (IGROV1 ovarian) [µM] | TGI (IGROV1 ovarian) [µM] | GI50 (SK-MEL-28 melanoma) [µM] | TGI (SK-MEL-28 melanoma) [µM] | GI50 (EKVX NSCLC) [µM] | TGI (EKVX NSCLC) [µM] | GI50 (MDA-MB-231 breast) [µM] | TGI (MDA-MB-231 breast) [µM] | GI50 (LOX IMVI melanoma) [µM] | TGI (LOX IMVI melanoma) [µM] | GI50 (MCF7 breast) [µM] | TGI (MCF7 breast) [µM] | GI50 (HCC-2998 colon) [µM] | TGI (HCC-2998 colon) [µM] | GI50 (HL-60(TB) leukemia) [µM] | TGI (HL-60(TB) leukemia) [µM] | GI50 (NCI-H226 lung) [µM] | TGI (NCI-H226 lung) [µM]
1 | CCCCC(SC(=S)N1CCCC1)C(=O)Nc1nc(CC(=O)OCC)cs1 (stereo not given) | 28.9 | > 100 | 7.98 | > 100 | 67.4 | > 100 | 56.4 | > 100 | > 100 | > 100 | 36.1 | > 100 | 1.25 | > 100 | 99.5 | > 100 | 25 | > 100 | 71 | > 100
2 | CCCCNNC(=O)c1ccc(Br)cc1 | 1.47 | 13.4 | 8.35 | > 50 | 1.55 | > 35.3 |  |  | 9.03 | > 50 | 3.29 | 12.2 | 2.06 | > 50 | 4.35 | 24 | 2.24 | > 50 | 9.86 | > 50
3 | CCC(=O)N1C/C(=C/c2ccc(Cl)cc2)C(=O)/C(=C/c2ccc(Cl)cc2)C1 | 0.179 | 0.435 | 0.998 | 2.55 | 1.71 | 3.33 |  |  | 1.05 | 2.9 | 0.161 | 0.354 | 0.324 | 1.36 | 0.735 | 1.82 | 1.25 | 5.03 | 1.15 | 3.5
4 | C=CO/N=[N+](\[O-])N(CC)CC |  | > 100 |  | > 100 |  | > 100 |  | > 100 |  | > 100 |  | > 100 |  | > 100 |  | > 100 |  | > 100 |  | > 100
5 | Nc1ccn(C2CC(F)C(CO)O2)c(=O)n1 (stereo not given) | > 100 | > 100 | > 100 | > 100 | > 100 | > 100 | > 100 | > 100 | > 100 | > 100 | > 100 | > 100 | > 100 | > 100 | > 100 | > 100 | > 100 | > 100 | > 100 | > 100
6 | Cn1cnc(N)c(N=O)c1=O |  | > 10 |  | > 10 |  | > 10 |  | > 10 |  | > 10 |  | > 10 |  | > 10 |  | > 10 |  | > 10 |  | > 10
7 | COc1ccccc1/C=C1\COc2ccc(-c3ccccc3)cc2C1=O | 2.98 | 12 | 4.69 | > 100 | 3.61 | 13.3 | 5.59 | > 100 | 3.66 | 17.7 | 2.97 | 10.7 | 2.4 |  | 2.63 | 6.92 | 1.86 | > 100 | 4.02 | 17.7
8 | C=CC(=O)N1CCC(c2ccc(C(N)=O)c(-c3ccc(Oc4ccccc4)cc3)n2)CC1 | 35.9 | > 100 | 19.1 | > 100 | 51.5 | > 100 | 21.5 | > 100 | 39 | > 100 | 26.3 | > 100 | 22.7 | > 100 | 58.1 | > 100 | 19.5 | 58.8 | 20.3 | 79.2
9 | CCOC(=O)N1C/C(=C\c2ccccc2)C(=O)/C(=C/c2ccccc2)C1 |  | 2.75 |  | 11.7 |  | 6.69 |  | 31.8 |  | 5.3 |  | 3.63 |  | > 20.9 |  | 4.8 |  | 4.3 |  | 12.3
10 | O=C(NCCN1CCOCC1)OCc1nc2nc(Cl)nc(N3CCOCC3)c2[nH]1 | 2.41 | > 100 | 2.7 | > 100 | > 100 | > 100 | > 100 | > 100 | 2.91 | > 100 | 0.382 | > 100 | 2.02 | > 100 | 3.77 | > 100 | 1.61 | 6.83 | 3.14 | > 100
11 | COc1ccc(C(=O)Cn2c(C(=O)c3ccccc3)nc3ccccc32)cc1 | 2.25 | > 100 | 6.19 | > 100 | 3.91 | > 100 | 7.21 | > 100 | 7.38 | > 100 | 5.18 | > 100 | 1.35 | > 100 | 3.2 | > 100 | 0.916 | > 22.9 | > 90.5 | > 100
12 | O=[N+]([O-])/C=C/c1c(Cl)cccc1Cl |  | 14 |  | 10.3 |  | 10.9 |  | 16.9 |  | 4.26 |  | 3.16 |  | 3.29 |  | 8.34 |  | > 100 |  | 50.6
13 | c1ccc(-c2nn3c(c2-c2ccnc4cc(OCCN5CCOCC5)ccc24)CCC3)nc1 | 31 | > 100 | 29.6 | > 100 | > 100 | > 100 | > 100 | > 100 | > 100 | > 100 | > 45.6 | > 100 | 12.9 | > 100 | > 100 | > 100 | > 100 | > 100 | > 81.2 | > 100
14 | O=C1CCc2c(sc3[nH]c(=S)n(-c4cc(C(F)(F)F)cc(C(F)(F)F)c4)c(=O)c23)C1 | 0.341 | 2.54 | 0.446 | 3.44 | 0.459 | 3.7 | 0.378 | 5.14 | 0.336 | 1.45 | 0.392 | 5.62 | 0.447 | 16.4 | 0.509 | 1.91 | 0.304 | 1.21 | 0.801 | 7.04
15 | COc1cc(-c2nc3ccccc3s2)ccc1OCCCCOc1cc2c(cc1OC)C(=O)N1CCC[C@H]1C=N2 | 0.57 | 2.19 | 3.06 | 12.7 | 1.99 | 4.51 | 2.24 | 5.51 | 0.911 | 3.09 | 0.726 | 2.22 | 0.471 | 3.57 | 1.1 | 2.69 | 0.93 | 4.98 | 2.47 | 5.05
16 | CN1C(=O)c2ccc3ccccc3c2C1=O |  | > 100 |  | > 100 |  | > 100 |  | 87.2 |  | > 100 |  |  |  | > 100 |  | > 100 |  | > 100 |  | > 100
17 | COc1ccc([C@H](CC(=O)O)N2CCN(CCCc3ccc4c(n3)NCCC4)C2=O)cn1 | 0.202 | > 34.7 | > 38.1 | > 100 | > 28.7 | > 100 |  |  | 0.254 |  | 0.715 | 4.23 | 0.247 | 0.902 | > 100 | > 100 | > 100 | > 100 | 0.417 | 
18 | COc1ccc2c(c1)[n+](=O)c(C(=O)c1cccs1)c(C(F)(F)F)n2[O-] | 12.3 | > 50 |  |  | 16.3 | > 50 | 1.48 | 8.21 | 7.38 | 25.4 | 2.09 | 12.7 | 4.58 | 23.7 | 4.72 | 22.7 | 4.04 | > 50 | 9.58 | > 50
19 | COc1cc2c3c(n(CCCN)c(=O)c2cc1OC)-c1ccc([N+](=O)[O-])cc1C3=O | 1.32 | 2.74 |  |  | 17.8 | 34.3 | 20 | 40.7 | 18.9 | 34.6 | 2.28 | 16.6 | 0.317 | 1.96 | 2.29 | 13.6 | 17.8 | 37.8 | 17.4 | 38.3
20 | CCCCCCCCCCCC1=NC(C)(C)CN1C(C)(C)CO | 1.56 | 3.06 |  |  | 1.83 | 3.41 | 2.77 | 16.9 | 2.1 | 4.48 | 1.91 | 3.79 | 2.48 | 5.64 | 1.75 | 3.24 | 1.77 | 4.66 | 5.16 | 20.5
21 | O=C(Oc1cccc(Cl)c1)c1ccccc1Nc1ccnc(C(F)(F)F)c1 | 1.63 | 3.45 | 15.2 | > 100 |  |  | 22.2 | 46.4 | 1.69 | 4.7 |  |  | 4.78 | 20 | 3.46 | 6.66 | 12.8 | > 100 | 2.15 | 8.89
